Data set [1] in a line: Pharmacokinetic study in rats after oral administration of RPM extract (UPLC-MS/MS of plasma). It counts as in vivo, Sprague-Dawley rats. Conditions: for Latest plasma sample time at which the constituent was detected / Detection in rat plasma after oral RPM extract: RPM extract 36 g/kg oral; for Latest plasma sample time at which the constituent was detected: sampling up to 24 h; for Detection in rat plasma after oral RPM extract: real plasma samples. On the procedure:
The analysis was performed on an AB Sciex API 5500 Q Trap mass spectrometer (Toronto, Canada), interfaced with a Waters Acquity UPLC separation module. Empower 3.0 and Analyst 1.62 software were used to control UPLC and mass spectrometer, respectively.
Chromatographic separation was achieved on a waters HSS C18 column (100 × 2.1 mm, 1.8 μm, kept at 40°C) using a mobile phase containing 0.025% formic acid that consisted of solvent A (water) and solvent B (acetonitrile). The mobile phase was delivered at 0.3 mL/min, and a gradient program was used as follows: 0-1 min, held 5% to 25% solvent B; 1–3.5 min, linear gradient from 25% to 35% solvent B; 3.5–5 min, linear gradient from 35% to 40% solvent B; 5-6 min, linear gradient from 40% to 60% solvent B; 6-6.1 min, linear gradient from 60% to 95% solvent B; 6.1–8 min, linear gradient from 95% to 100% solvent B; and 8-9 min, held 5% solvent B.
The MS detection was set in positive multiple reaction monitoring (MRM) mode for the analytes and IS. The turbo spray temperature was maintained at 500°C. The nebulizer gas (gas 1), heater gas (gas 2), and curtain gas was set at 45, 50, and 45 psi, respectively. The interface heater was on. The precursor ion, corresponding product ion and dwell time along with declustering potential (DP), entrance potential (EP), collision energy (CE), and collision exit potential (CXP) for each compound were optimized with standard substance. The dwell time was 50 ms for all analytes. The EP and CXP were set at –10 V and −16 V, respectively.
Sample preparations were made using the protein precipitation process. 50 μL thawed plasma, 10 μL IS working solution (puerarin 10 μg/mL), and 150 μL acetonitrile were added to a 1.5 mL tube in that order. After vortexed for 5 min and centrifuged at 12,000 g for 5 min at 4°C, 150 μL of the supernatant was transferred and a 5 μL was injected into the UPLC-MS/MS instrument for analysis.
Male Sprague-Dawley rats (200–240 g) were obtained from Beijing Vital River Laboratory Animal Technology Co., Ltd. (Beijing, China) (SCXK 2016(jing)-0006). The animals were maintained in SPF animal room at temperature 22 ± 2°C, 60 ± 5% humidity, and 12/12 h day/night cycle. All procedures were approved by the Institutional Animal Ethics Committee and performed in accordance with the Regulations of Experiment Animal Administration issued by the State Committee of Science and Technology of China. RPM extract suspended in an equal volume of 5% CMC-Na solution and orally administered to the six rats at a single dose of 36 g/kg (dose calculated as grams of crude materials used to create the extract per kilogram of rat body weight). The dose was set at a subtoxic level to investigate the pharmacokinetic profiles of the constituents of RPM and were approximately 72 times the upper dose (6 g/day) of human recommended by the 2015 edition of Chinese Pharmacopoeia (converted to rat dose based on body surface area conversion). The calculated doses of compounds based on the contents in the extract were 7.38, 14.8, 13.7, 8.82, 15.5, 11.2, 55.8, 1.08, 1170, 11.3, 25.7, 131.4, and 13.0 mg/kg for chrysophanol, emodin, aloe-emodin, rhein, physcion, questin, citreorosein, questinol, TSG, TG, CG, EG, and PG, respectively. Rats were fasted for at least 12 h before the experiments and had free access to water. Blood samples (∼0.25 mL) were collected from the retinal venous plexus into heparinized 1.5 mL polythene tubes before administration and 5, 15, and 30 min and 1, 2, 4, 6, 8, 12, and 24 h after dosing RPM extract at dose of 36 g/kg. The plasma was immediately separated from blood samples and stored frozen at −70°C until analysis.
The pharmacokinetic parameters were calculated using the pharmacokinetic software Phoenix® WinNonlin®, version 7.0 (Scientific Consulting Inc., Apex, NC, USA). The peak plasma concentration (Cmax) and time to reach Cmax (Tmax) were read directly from the experimental data. […]

Data set [2] in a line: Stability of the analytes in rat plasma and processed plasma samples. The format is in vitro ADME. The settings on record: for Stability, post-preparative: acetonitrile-precipitated plasma supernatant, 24 h at 6°C in autosampler; for Stability, long-term (–70 °C) / Stability, short-term / Stability, freeze–thaw (three cycles): rat plasma; for Stability, long-term (–70 °C): 3 months at −70°C; for Stability, short-term: 4 h at room temperature; for Stability, freeze–thaw (three cycles): −70°C to room temperature. The protocol: The stability of the 13 analytes in rat plasma were assessed by analyzing samples spiked 0.2, 2.7, and 58.3 ng/mL for emodin, aloe-emodin, questin, citreorosein, questinol, TG, CG, EG, PG; 0.6, 8.1, and 175 ng/mL for TSG; 1, 13.5, and 291.6 ng/mL for rhein, physcion; and 2, 27, and 583.2 ng/mL for chrysophanol, respectively, under four conditions: (1) short-term storage for 4 h at room temperature; (2) long-term storage for (3 months at −70°C; (3) three freeze-thaw cycles; and (4) posttreatment storage for 24 h at 6°C setting in UPLC autosampler. The concentrations obtained were compared with the nominal values of the spiked samples. The stability was calculated as the percent of the measured concentration to the initial concentration at time zero. The analytes were considered stable if the assay values were within the acceptable limit of accuracy (85.0∼115%).

The mark [3] stands for this setting: male, Sprague-Dawley, rat, plasma, po, 36 g/kg, rat plasma, single oral dose of RPM extract 36 g/kg, n = 6, mean ± SD, read-out: AUC0–t.
Setting [4] is: male, Sprague-Dawley, rat plasma, single oral dose of RPM extract 36 g/kg, n = 6, mean ± SD, read-out: AUC0–∞.
Setting [5] is: male, Sprague-Dawley, rat plasma, single oral dose of RPM extract 36 g/kg, n = 6, mean ± SD, read-out: Cmax.
Setting [6] is: male, Sprague-Dawley, rat plasma, single oral dose of RPM extract 36 g/kg, n = 6, mean ± SD, read-out: MRT0–∞.
Setting [7] is: male, Sprague-Dawley, rat plasma, single oral dose of RPM extract 36 g/kg, n = 6, mean ± SD, read-out: Tmax.
Where [8] appears, read: male, Sprague-Dawley, rat plasma, single oral dose of RPM extract 36 g/kg, n = 6, mean ± SD, read-out: t1/2 (converted).
Setting [9] is: high QC (58.3 ng/mL; TSG 175; rhein, physcion 292; chrysophanol 583).
[10] abbreviates: low QC (0.2 ng/mL; TSG 0.6; rhein, physcion 1; chrysophanol 2).
The mark [11] stands for this setting: middle QC (2.7 ng/mL; TSG 8.1; rhein, physcion 13.5; chrysophanol 27).
Where [12] appears, read: male, Sprague-Dawley, rat, in vivo, po, 36 g/kg.

These results are taken from article PMC7072103, “Simultaneous Determination of 13 Constituents of Radix Polygoni Multiflori in Rat Plasma and Its Application in a Pharmacokinetic Study” (International Journal of Analytical Chemistry, 2020).

“Also recorded” adds a separate entry of the source. Where two headings read alike, the source gives them in different places. A value given as a limit tells only on which side of the number the result lay.

As to `Cc1cc(O)c2c(c1)C(=O)c1cccc(O)c1C2=O` [Chrysophanol, chrysophanol], the “Latest plasma sample time at which the constituent was detected” value (shortened to “Latest plasma sample time”) in data set [1] was not above 6 h. The AUC(0-t) in data set [1] (setting [3]) came to 4.28 ± 1.64 ng·h/mL. Further, in data set [1] (setting [4]), the AUC(0-inf) came to 10.3 ± 1.87 ng·h/mL. Moreover, the Cmax in data set [1] (setting [5]) stood at 1.9 ± 0.56 ng/mL. The MRT inf in data set [1] (setting [6]) amounted to 6.76 ± 2.06 h. For the same compound, in data set [1] (setting [7]), the Tmax was 2.22 ± 1.76 h. For the same compound, the half-life in data set [1] (setting [8]) is 3.18 ± 0.62 h.

As to `O=C1c2cccc(O)c2C(=O)c2c(O)cc(CO)cc21` [Aloe-emodin, aloe-emodin], in data set [2] (setting [9]), the “Stability, post-preparative” value amounted to 92.6%; the “Stability, long-term (–70 °C)” value is 102%; the “Stability, short-term” value turned out to be 104%; the “Stability, freeze–thaw (three cycles)” value was determined as 101%. In data set [2] (setting [10]), the “Stability, post-preparative” value turned out to be 96.4%; the “Stability, long-term (–70 °C)” value came to 103%; the “Stability, short-term” value worked out at 105%; the “Stability, freeze–thaw (three cycles)” value is reported as 99%. Besides, in data set [2] (setting [11]), the “Stability, post-preparative” value is reported as 102%; the “Stability, long-term (–70 °C)” value worked out at 98.4%; the “Stability, short-term” value was found to be 105%; the “Stability, freeze–thaw (three cycles)” value was 97.2%. The “Latest plasma sample time” value in data set [1] is not above 12 h. Further, in data set [1] (male, Sprague-Dawley, in vivo, rat plasma, single oral dose of RPM extract 36 g/kg, n = 6, mean ± SD, read-out: AUC0–∞), the AUC(0-inf) is 8.46 ± 3.44 ng·h/mL. In data set [1] (male, Sprague-Dawley, in vivo, rat plasma, single oral dose of RPM extract 36 g/kg, n = 6, mean ± SD, read-out: Cmax), the Cmax worked out at 11.3 ± 3.1 ng/mL. For the same compound, the MRT inf in data set [1] (male, Sprague-Dawley, in vivo, rat plasma, single oral dose of RPM extract 36 g/kg, n = 6, mean ± SD, read-out: MRT0–∞) came to 3.17 ± 1.54 h. Besides, in data set [1] (male, Sprague-Dawley, in vivo, rat plasma, single oral dose of RPM extract 36 g/kg, n = 6, mean ± SD, read-out: Tmax), the Tmax came out at 0.22 ± 0.07 h. Besides, the half-life in data set [1] (male, Sprague-Dawley, in vivo, rat plasma, single oral dose of RPM extract 36 g/kg, n = 6, mean ± SD, read-out: t1/2 (converted)) is 3.44 ± 1.4 h. Further, the AUC(0-t) in data set [1] (male, Sprague-Dawley, rat, in vivo, po, 36 g/kg, rat plasma, single oral dose of RPM extract 36 g/kg, n = 6, mean ± SD, read-out: AUC0–t) worked out at 7.28 ± 3.25 ng·h/mL.

For the compound `O=C(O)c1cc(O)c2c(c1)C(=O)c1cccc(O)c1C2=O` [Rhein, rhein], the “Latest plasma sample time” value in data set [1] is given as not above 2 h. Further, the AUC(0-t) in data set [1] (setting [3]) amounted to 1.11 ± 0.63 ng·h/mL. The AUC(0-inf) in data set [1] (setting [4]) amounted to 2.31 ± 0.51 ng·h/mL. For the same compound, in data set [1] (setting [5]), the Cmax was found to be 1.06 ± 0.24 ng/mL. In addition, the MRT inf in data set [1] (setting [6]) is 1.83 ± 0.56 h. The Tmax in data set [1] (setting [7]) is 0.46 ± 0.1 h. In addition, the half-life in data set [1] (setting [8]) was 1.18 ± 0.39 h.

On to `O=C1c2cc(O)cc(O)c2C(=O)c2c(O)cc(CO)cc21` [Citreorosein, 1,3,8-trihydroxy-6-(hydroxymethyl)anthracene-9,10-dione], for which the “Relative bioavailability versus emodin (AUC0–t normalized by molecular weight and dose)” value in data set [1] (male, Sprague-Dawley, rat, in vivo, po) is listed as 15.8%. In data set [1] (setting [12]), the “AUC0–t” value came to 131 ± 96.9 ng·h/mL, the “AUC0–t relative to that of emodin” value is 6.0 fold, the AUC(0-inf) amounted to 134 ± 96.4 ng·h/mL and the highest level (Cmax) was 149 ± 147 ng/mL. In data set [1] (setting [12]), the MRT inf is 5.32 ± 1.85 h, the Tmax came out at 0.19 ± 0.09 h and the half-life is 3.97 ± 1.31 h. For the same compound, the AUC(0-t) in data set [1] (male, Sprague-Dawley, rat, in vivo, po, 36 g/kg, AUC0–t) worked out at 134 ± 96.4 ng·h/mL.

In the case of `OC[C@H]1O[C@@H](Oc2c(O)cc(O)cc2/C=C/c2ccc(O)cc2)[C@H](O)[C@@H](O)[C@@H]1O` [TSG, 2,3,5,4′-tetrahydroxystilbene-2-O-β-D-glucoside], the AUC(0-t) in data set [1] (setting [3]) is 1870 ± 554 ng·h/mL. The AUC(0-inf) in data set [1] (setting [4]) worked out at 1870 ± 581 ng·h/mL. In data set [1] (setting [5]), the Cmax was determined as 1740 ± 401 ng/mL. Besides, in data set [1] (setting [6]), the MRT inf came out at 3.66 ± 0.97 h. Further, in data set [1] (setting [7]), the Tmax amounted to 0.33 ± 0.13 h. The half-life in data set [1] (setting [8]) is 5.98 ± 2.62 h. Also, the “AUC0–t” value in data set [1] (rat plasma, single oral dose of RPM extract 36 g/kg, n = 6, mean ± SD) stood at 1811 ± 554 ng·h/mL.

On to `COc1cc(O[C@@H]2O[C@H](CO)[C@@H](O)[C@H](O)[C@H]2O)c2c(O)c(C(C)=O)c(C)cc2c1` [TG, torachrysone-8-O-glucoside], for which the AUC(0-t) in data set [1] (setting [3]) was determined as 21.2 ± 7.38 ng·h/mL. Further, the AUC(0-inf) in data set [1] (setting [4]) turned out to be 21.7 ± 7.48 ng·h/mL. Besides, the Cmax in data set [1] (setting [5]) turned out to be 18.7 ± 4.06 ng/mL. Moreover, the MRT inf in data set [1] (setting [6]) was 2.1 ± 0.24 h. For the same compound, the Tmax in data set [1] (setting [7]) turned out to be 0.11 ± 0.07 h. In data set [1] (setting [8]), the half-life is 2 ± 0.63 h.

As for `COc1cc(O)c2c(c1)C(=O)c1cc(C)cc(O)c1C2=O` [Physcion, physcion], the figures for the “Detection in rat plasma after oral RPM extract” value in data set [1] and in data set [1] (listed as physcion) were “not detected” and “too low to be detected”, respectively.

`COc1cc(O)cc2c1C(=O)c1c(O)cc(C)cc1C2=O` [Questin, questin]: the “Detection in rat plasma after oral RPM extract” value in data set [1] is “not detected; also recorded: too low to be detected”.
